Source: PubChem BioAssay (NCI)
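Step 1: Grow cells in 96-well plates. Step 2: Expose to compound for 48 hours at 5 concentrations. Step 3: Interpolate endpoints linearly; if unreached, use highest concentration. TGI is the concentration that stops growth completely.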

How the values were obtained:
Experiment in all cases: NCI anticancer screen, dose series, 48 h
786-0 renal = system: 786-0 renal
A498 renal = system: A498 renal
CCRF-CEM leukemia = system: CCRF-CEM leukemia
COLO 205 colon = system: COLO 205 colon
DU-145 prostate = system: DU-145 prostate
HOP-92 NSCLC = system: HOP-92 NSCLC
HS 578T breast = system: HS 578T breast
MALME-3M melanoma = system: MALME-3M melanoma
NCI-H226 lung = system: NCI-H226 lung
NCI-H23 lung = system: NCI-H23 lung
NCI-H460 lung = system: NCI-H460 lung
NCI-H522 lung = system: NCI-H522 lung
OVCAR-5 ovarian = system: OVCAR-5 ovarian
SF-295 CNS = system: SF-295 CNS
SNB-19 CNS = system: SNB-19 CNS
TK-10 renal = system: TK-10 renal
UACC-62 melanoma = system: UACC-62 melanoma
UO-31 renal = system: UO-31 renal

Row | SMILES | TGI (786-0 renal) | TGI (A498 renal) | TGI (CCRF-CEM leukemia) | TGI (COLO 205 colon) | TGI (DU-145 prostate) | TGI (HOP-92 NSCLC) | TGI (HS 578T breast) | TGI (MALME-3M melanoma) | TGI (NCI-H226 lung) | TGI (NCI-H23 lung) | TGI (NCI-H460 lung) | TGI (NCI-H522 lung) | TGI (OVCAR-5 ovarian) | TGI (SF-295 CNS) | TGI (SNB-19 CNS) | TGI (TK-10 renal) | TGI (UACC-62 melanoma) | TGI (UO-31 renal)
1 | CSc1nc(C)c(CCOC(C)=O)c(Cl)n1 | > 100 µM | > 100 µM | > 100 µM | > 100 µM | > 100 µM | > 100 µM | > 100 µM | > 100 µM | > 100 µM | > 100 µM | > 100 µM | > 100 µM | > 100 µM | > 100 µM | > 100 µM | > 100 µM | > 100 µM | > 100 µM
2 | CCN(CC)C1C(=O)NC1C#Cc1ccccc1 (stereo unspecified) | > 100 µM | > 100 µM | > 100 µM | > 100 µM | > 100 µM | 92.1 µM | > 100 µM | > 100 µM | > 100 µM | > 100 µM | > 100 µM | > 100 µM | > 100 µM | > 100 µM | > 100 µM | > 100 µM | > 100 µM | > 100 µM
